Results as given in US8273774B2, “Phenoxypyridinylamide compounds” (AstraZeneca AB, priority 2008, dated 2012).

These molecules were tested against recombinant Human Phosphodiesterase B2 (PDE4B2) (Homo sapiens, UniProt Q07343) (assay: Human Phosphodiesterase B2 Radiometric Assay). Conditions: 0.1 μg/mL recombinant PDE4B2; preincubated at 30 C for 30 min; [3H]cyclic AMP 8 nM, stopped after 20 min; yttrium silicate SPA beads; read-out: PDE4B2 pIC50 (converted).
Type: biochemical
Method in brief: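 Compounds preincubated 30 min at 30 C with 0.1 μg/mL recombinant PDE4B2 in 50 mM HEPES pH 7.5, 8.3 mM MgCl2, 1.7 mM EGTA, 0.01% Brij 35.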

Sequence of recombinant Human Phosphodiesterase B2 (PDE4B2) (Q07343 1-564 isoform Q07343-2): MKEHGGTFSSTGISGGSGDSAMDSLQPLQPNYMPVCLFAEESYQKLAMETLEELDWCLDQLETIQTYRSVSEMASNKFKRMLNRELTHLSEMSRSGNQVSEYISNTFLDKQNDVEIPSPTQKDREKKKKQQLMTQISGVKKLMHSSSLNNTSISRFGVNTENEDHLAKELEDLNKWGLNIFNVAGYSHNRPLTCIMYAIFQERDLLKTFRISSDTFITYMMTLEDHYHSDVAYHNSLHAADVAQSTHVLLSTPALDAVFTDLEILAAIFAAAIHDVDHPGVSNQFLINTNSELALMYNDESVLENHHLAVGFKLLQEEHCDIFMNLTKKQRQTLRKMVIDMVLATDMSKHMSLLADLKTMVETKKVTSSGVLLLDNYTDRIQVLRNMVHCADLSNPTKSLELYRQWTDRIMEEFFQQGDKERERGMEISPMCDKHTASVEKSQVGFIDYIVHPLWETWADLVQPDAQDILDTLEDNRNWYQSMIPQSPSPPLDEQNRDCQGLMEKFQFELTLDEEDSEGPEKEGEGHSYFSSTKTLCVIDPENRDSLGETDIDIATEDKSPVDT

| SMILES | IC50 [nM] |
| --- | --- |
| O=C(N[C@H]1CC[C@@H](NC(=O)c2cc(F)cnc2Oc2cccc(-c3ccc(O)cc3CN3CCOCC3)c2)CC1)c1cc2ccccc2nc1O [Example 42, N-((1s,4s)-4-(5-fluoro-2-(4′-hydroxy-2′-(morpholinomethyl)biphenyl-3-yloxy)nicotinamido)cyclohexyl)-2-hydroxyquinoline-3-carboxamide] | 0.0501 |
| Cc1nc(C(=O)N[C@H]2CC[C@@H](NC(=O)c3cc(F)cnc3Oc3cccc(-c4ccc(CCCNCCCO)cc4)c3)CC2)cs1 [Example 136, N-((1s,4s)-4-(5-fluoro-2-(4′-(3-(3-hydroxypropylamino)propyl)biphenyl-3-yloxy)nicotinamido)cyclohexyl)-2-methylthiazole-4-carboxamide] | 0.1 |
| Cc1nc(C(=O)N[C@H]2CC[C@@H](NC(=O)c3cc(F)cnc3Oc3cccc(-c4ccc(CN5CCCOCC5)cc4)c3)CC2)cs1 [Example 55, N-((1s,4s)-4-(2-(4′-((1,4-oxazepan-4-yl)methyl)biphenyl-3-yloxy)-5-fluoronicotinamido)cyclohexyl)-2-methylthiazole-4-carboxamide] | 0.1 |
| Cc1nc(C(=O)N[C@H]2CC[C@@H](NC(=O)c3cc(F)cnc3Oc3cccc(-c4ccc(CCCN5CCCN(C)CC5)cc4)c3)CC2)cs1 [Example 134, N-((1s,4s)-4-(5-fluoro-2-(4′-(3-(4-methyl-1,4-diazepan-1-yl)propyl)biphenyl-3-yloxy)nicotinamido)cyclohexyl)-2-methylthiazole-4-carboxamide] | 0.0631 |
| O=C(N[C@H]1CC[C@@H](NC(=O)c2cnn3cccnc23)CC1)c1cc(F)cnc1Oc1cccc(-c2ccc(CN3CCSCC3)cc2CN2CCOCC2)c1 [Example 197, N-((1s,4s)-4-(5-fluoro-2-(2′-(morpholinomethyl)-4′-(thiomorpholinomethyl)biphenyl-3-yloxy)nicotinamido)cyclohexyl)pyrazolo[1,5-a]pyrimidine-3-carboxamide] | 0.02 |
| Cc1cc(C(=O)N[C@H]2CC[C@@H](NC(=O)c3cc(F)cnc3Oc3cccc(-c4ccc(CCN5CCCN(C)CC5)cc4)c3)CC2)nn1C [Example 166, N-((1s,4s)-4-(1,5-Dimethyl-1H-pyrazole-3-carboxamido)cyclohexyl)-5-fluoro-2-(4′-(2-(4-methyl-1,4-diazepan-1-yl)ethyl)biphenyl-3-yloxy)nicotinamide] | 0.0398 |
| Cc1cccc2nc(C(=O)N[C@H]3CC[C@@H](NC(=O)c4cc(F)cnc4Oc4cccc(-c5ccc(O)cc5CN5CCCOCC5)c4)CC3)cn12 [Example 20, N-((1s,4s)-4-(2-(2′-((1,4-oxazepan-4-yl)methyl)-4′-hydroxybiphenyl-3-yloxy)-5-fluoronicotinamido)cyclohexyl)-5-methylimidazo[1,2-a]pyridine-2-carboxamide] | 0.0316 |

The remaining lines, values ahead:

| IC50 [nM] | SMILES |
| --- | --- |
| 0.0631 | C[C@@H]1CN(Cc2cc(-c3cccc(Oc4ncc(F)cc4C(=O)N[C@H]4CC[C@@H](NC(=O)c5cc6n(n5)CCCC6)CC4)c3)ccc2O)C[C@H](C)N1 [Example 101, N-((1s,4s)-4-(2-(3′-(((3R,5S)-3,5-dimethylpiperazin-1-yl)methyl)-4′-hydroxybiphenyl-3-yloxy)-5-fluoronicotinamido)cyclohexyl)-4,5,6,7-tetrahydropyrazolo[1,5-a]pyridine-2-carboxamide] |
| 0.0158 | Cc1nc(C(=O)N[C@H]2CC[C@@H](NC(=O)c3cc(F)cnc3Oc3cccc(-c4ccc(CN5C[C@@H](C)N[C@@H](C)C5)cc4CN4CCSCC4)c3)CC2)cs1 [Example 189, N-((1s,4s)-4-(2-(4′-(((3S,5R)-3,5-dimethylpiperazin-1-yl)methyl)-2′-(thiomorpholinomethyl)biphenyl-3-yloxy)-5-fluoronicotinamido)cyclohexyl)-2-methylthiazole-4-carboxamide] |
| 0.0126 | C[C@@H]1CN(Cc2ccc(-c3cccc(Oc4ncc(F)cc4C(=O)N[C@H]4CC[C@@H](NC(=O)c5cccc6[nH]cnc56)CC4)c3)c(CN3CCSCC3)c2)C[C@H](C)N1 [Example 202, N-((1s,4s)-4-(2-(4′-(((3S,5R)-3,5-dimethylpiperazin-1-yl)methyl)-2′-(thiomorpholinomethyl)biphenyl-3-yloxy)-5-fluoronicotinamido)cyclohexyl)-1H-benzo[d]imidazole-4-carboxamide] |
| 0.2 | Cc1cccc2nc(C(=O)N[C@H]3CC[C@@H](NC(=O)c4cc(F)cnc4Oc4cccc(-c5ccc(CN6C[C@@H](C)N[C@@H](C)C6)c(O)c5)c4)CC3)cn12 [Example 96, N-((1s,4s)-4-(2-(4′-(((3S,5R)-3,5-dimethylpiperazin-1-yl)methyl)-3′-hydroxybiphenyl-3-yloxy)-5-fluoronicotinamido)cyclohexyl)-5-methylimidazo[1,2-a]pyridine-2-carboxamide] |
